System: c-Myc
Experiment: c-Myc immunofluorescence assay
Assay type: cell-based, human
Details: A549 cells, 24 hours treatment, anti-c-Myc immunofluorescence
How it was run: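 High-content imaging (20×) of PFA-fixed A549 cells immunostained for c-Myc with DAPI nuclei, after 24 h compound treatment at increasing concentrations. Per-cell c-Myc signal in identified cell regions was plotted against dose and fitted by logistic regression to give EC50.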

SMILES | Myc Efficacy (−LogEC50)
CNC(=O)c1ccc(-c2cn3c(n2)sc2cc(C(=O)N[C@H]4CCNC4)ccc23)cc1 [compound 222, (S)-2-(4-(methylcarbamoyl)phenyl)-N-(pyrrolidin-3-yl)benzo[d]imidazo[2,1-b]thiazole-7-carboxamide] | + (+ >3 and <5)
CNC(=O)c1ccc(-c2cn3c(n2)sc2cc(C(=O)NCc4nncn4C4CC4)ccc23)cc1 [compound 223, N-((4-cyclopropyl-4H-1,2,4-triazol-3-yl)methyl)-2-(4-(methylcarbamoyl)phenyl) benzo[d]imidazo[2,1-b]thiazole-7-carboxamide] | − (− ≤3)
CNC(=O)c1ccc(-c2cn3c(n2)sc2cc(C(=O)NC[C@H]4CCCN4)ccc23)cc1 [compound 224, (R)-2-(4-(methylcarbamoyl)phenyl)-N-(pyrrolidin-2-ylmethyl)benzo[d]imidazo[2,1-b]thiazole-7-carboxamide] | − (− ≤3)
CNC(=O)c1ccc(-c2cn3c(n2)sc2cc(C(=O)N[C@H]4CCN(C)C4)ccc23)cc1 [compound 225, (S)-2-(4-(methylcarbamoyl)phenyl)-N-(1-methylpyrrolidin-3-yl)benzo[d]imidazo[2,1-b]thiazole-7-carboxamide] | + (+ >3 and <5)
CNC(=O)c1ccc(-c2cn3c(n2)sc2cc(C(=O)NCC4CC(O)C4)ccc23)cc1 (stereo not shown) [compound 226, N-((3-hydroxycyclobutyl)methyl)-2-(4-(methylcarbamoyl)phenyl) benzo[d]imidazo[2,1-b]thiazole-7-carboxamide] | − (− ≤3)
CNC(=O)c1ccc(-c2cn3c(n2)sc2cc(C(=O)N[C@H]4CCCNC4)ccc23)cc1 [compound 227, (S)-2-(4-(methylcarbamoyl)phenyl)-N-(piperidin-3-yl)benzo[d] imidazo[2,1-b]thiazole-7-carboxamide] | ++ (++ ≥5 and <6)
CNC(=O)c1ccc(-c2cn3c(n2)sc2cc(C(=O)N[C@H]4CCCCN(C)C4=O)ccc23)cc1 [compound 228, (S)-N-(1-methyl-2-oxoazepan-3-yl)-2-(4-(methylcarbamoyl)phenyl) benzo[d]imidazo[2,1-b]thiazole-7-carboxamide] | + (+ >3 and <5)
CNCCCCNC(=O)c1ccc2c(c1)sc1nc(-c3ccc(C(=O)NC)cc3)cn12 [compound 229, N-(4-(methylamino)butyl)-2-(4-(methylcarbamoyl)phenyl) benzo[d]imidazo[2,1-b]thiazole-7-carboxamide] | + (+ >3 and <5)
CNC(=O)c1ccc(-c2cn3c(n2)sc2cc(C(=O)NCC4CCC5(CCNCC5)O4)ccc23)cc1 (stereo not shown) [compound 230, N-((1-oxa-8-azaspiro[4.5]decan-2-yl)methyl)-2-(4-(methylcarbamoyl)phenyl) benzo[d]imidazo[2,1-b]thiazole-7-carboxamide] | + (+ >3 and <5)
CNC(=O)c1ccc(-c2cn3c(n2)sc2cc(C(=O)N[C@H]4CN5CCC4CC5)ccc23)cc1 [compound 231, (R)-2-(4-(methylcarbamoyl)phenyl)-N-(quinuelidin-3-yl)benzo[d]imidazo[2,1-b]thiazole-7-carboxamide] | − (− ≤3)
CNC(=O)c1ccc(-c2cn3c(n2)sc2cc(C(=O)NCCCn4nc(C)cc4C)ccc23)cc1 [compound 232, N-(3-(3,5-dimethyl-1H-pyrazol-1-yl)propyl)-2-(4-(methylcarbamoyl)phenyl) benzo[d]imidazo[2,1-b]thiazole-7-carboxamide] | − (− ≤3)
CCN1CCC(CNC(=O)c2ccc3c(c2)sc2nc(-c4ccc(C(=O)NC)cc4)cn23)C1 (stereo not shown) [compound 233, N-((1-ethylpyrrolidin-3-yl)methyl)-2-(4-(methylcarbamoyl)phenyl) benzo[d]imidazo[2,1-b]thiazole-7-carboxamide] | − (− ≤3)
CNC(=O)c1ccc(-c2cn3c(n2)sc2cc(C(=O)NC(C)C4CCOCC4)ccc23)cc1 (stereo not shown) [compound 234, 2-(4-(methylcarbamoyl)phenyl)-N-(1-(tetrahydro-2H-pyran-4-yl)ethyl)benzo[d]imidazo [2,1-b]thiazole-7-carboxamide] | + (+ >3 and <5)
CNC(=O)c1ccc(-c2cn3c(n2)sc2cc(C(=O)NCCCn4ccnc4)ccc23)cc1 [compound 235, N-(3-(1H-imidazol-1-yl)propyl)-2-(4-(methylcarbamoyl)phenyl) benzo[d]imidazo[2,1-b]thiazole-7-carboxamide] | + (+ >3 and <5)
CNC(=O)c1ccc(-c2cn3c(n2)sc2cc(C(=O)NC4CC(=O)N(C)C4)ccc23)cc1 (stereo not shown) [compound 236, N-(1-methyl-5-oxopyrrolidin-3-yl)-2-(4-(methylcarbamoyl)phenyl) benzo[d]imidazo[2,1-b]thiazole-7-carboxamide] | − (− ≤3)
CNC(=O)c1ccc(-c2cn3c(n2)sc2cc(C(=O)NC4(CO)CCOCC4)ccc23)cc1 [compound 237, N-(4-(hydroxymethyl)tetrahydro-2H-pyran-4-yl)-2-(4-(methylcarbamoyl)phenyl) benzo[d]imidazo[2,1-b]thiazole-7-carboxamide] | − (− ≤3)

SMILES | Myc Efficacy (−LogEC50)
CNC(=O)c1ccc(-c2cn3c(n2)sc2cc(C(=O)N[C@H]4[C@H]5CN[C@@H]4C5)ccc23)cc1 [compound 238, N-((1R,4R,5S)-2-azabicyclo[2.1.1]hexan-5-(methylcarbamoyl)phenyl) benzo[d]imidazo[2,1-b]thiazole-7-carboxamide] | − (− ≤3)
CNC(=O)c1ccc(-c2cn3c(n2)sc2cc(C(=O)NC4CC4OC)ccc23)cc1 (stereo not shown) [compound 240, N-(2-methoxycyclopropyl)-2-(4-(methylcarbamoyl)phenyl) benzo[d]imidazo[2,1-b] thiazole-7-carboxamide] | + (+ >3 and <5)
CNC(=O)c1ccc(-c2cn3c(n2)sc2cc(C(=O)NC4CC5(CNC5)C4)ccc23)cc1 [compound 241, 2-(4-(methylcarbamoyl)phenyl)-N-(2-azaspiro[3.3]heptan-6-yl)benzo[d]imidazo[2,1-b] thiazole-7-carboxamide] | + (+ >3 and <5)
CC[C@H](NC(=O)c1ccc2c(c1)sc1nc(-c3ccc(C(=O)NC)cc3)cn12)c1ccnn1C [compound 242, (S)-N-(1-(1-methyl-1H-pyrazol-5-yl)propyl)-2-(4-(methylcarbamoyl)phenyl) benzo[d]imidazo[2,1-b] thiazole-7-carboxamide] | + (+ >3 and <5)
CCc1nccn1CCNC(=O)c1ccc2c(c1)sc1nc(-c3ccc(C(=O)NC)cc3)cn12 [compound 243, N-(2-(2-ethyl-1H-imidazol-1-yl)ethyl)-2-(4-(methylcarbamoyl)phenyl) benzo[d]imidazo[2,1-b] thiazole-7-carboxamide] | + (+ >3 and <5)
CNC(=O)c1ccc(-c2cn3c(n2)sc2cc(C(=O)NCC(C)(C)N4CCOCC4)ccc23)cc1 [compound 244, N-(2-methyl-2-morpholinopropyl)-2-(4-(methylcarbamoyl)phenyl) benzo[d]imidazo[2,1-b] thiazole-7-carboxamide] | − (− ≤3)
CNC(=O)c1ccc(-c2cn3c(n2)sc2cc(C(=O)N[C@H]4C[C@@H](OC)C4)ccc23)cc1 [compound 245, N-((1s,3s)-3-methoxycyclobutyl)-2-(4-(methylcarbamoyl)phenyl) benzo[d]imidazo[2,1-b] thiazole-7-carboxamide] | − (− ≤3)
CNC(=O)c1ccc(-c2cn3c(n2)sc2cc(C(=O)N[C@H]4C[C@@H](NC)C4)ccc23)cc1 [compound 246, N-((1s,3s)-3-(methylamino)cyclobutyl)-2-(4-(methylcarbamoyl)phenyl) benzo[d]imidazo[2,1-b] thiazole-7-carboxamide] | + (+ >3 and <5)
CNC(=O)c1ccc(-c2cn3c(n2)sc2cc(C(=O)N[C@H]4C[C@H](NC)C4)ccc23)cc1 [compound 247, N-((1r,3r)-3-(methylamino)cyclobutyl)-2-(4-(methylcarbamoyl)phenyl) benzo[d]imidazo[2,1-b] thiazole-7-carboxamide] | − (− ≤3)
Cc1cccc(-c2cn3c(n2)sc2cc(C(=O)NCCCN4CC5CC4CN5C)ccc23)c1 (stereo not shown) [compound 248, N-(3-(5-methyl-2,5-diazabicyclo[2.2.1]heptan-2-yl)propyl)-2-(m-tolyl)benzo[d]imidazo[2,1-b]thiazole-7-carboxamide] | + (+ >3 and <5)
CNC(=O)c1ccc(-c2cn3c(n2)sc2cc(C(=O)NCCCN4CC5CC4CN5C)ccc23)cc1 (stereo not shown) [compound 249, N-(3-(5-methyl-2,5-diazabicyclo[2.2.1]heptan-2-yl)propyl)-2-(4-(methylcarbamoyl)phenyl) benzo[d]imidazo[2,1-b]thiazole-7-carboxamide] | − (− ≤3)
CNC(=O)c1ccc(-c2cn3c(n2)sc2cc(C(=O)N4CCN(CC(N)=O)CC4)ccc23)cc1 [compound 250, 4-(7-(4-(2-amino-2-oxoethyl)piperazine-1-carbonyl)benzo[d]imidazo [2,1-b]thiazol-2-yl)-N-methylbenzamide] | + (+ >3 and <5)
CNC(=O)c1ccc(-c2cn3c(n2)sc2cc(C(=O)NCC4(N)CC4)ccc23)cc1 [compound 251, N-((1-aminocyclopropyl)methyl)-2-(4-(methylcarbamoyl)phenyl) benzo[d]imidazo[2,1-b]thiazole-7-carboxamide] | − (− ≤3)
CNC(=O)c1ccc(-c2cn3c(n2)sc2cc(C(=O)NCC4CC(=O)N(C)C4)ccc23)cc1 (stereo not shown) [compound 252, N-((1-methyl-5-oxopyrrolidin-3-yl)methyl)-2-(4-(methylcarbamoyl)phenyl) benzo[d]imidazo[2,1-b]thiazole-7-carboxamide] | + (+ >3 and <5)
CNC(=O)c1ccc(-c2cn3c(n2)sc2cc(C(=O)N[C@H]4[C@@H]5CNC[C@@H]54)ccc23)cc1 [compound 253, N-((1R,5S,6s)-3-azabicyclo[3.1.0]hexan-6-yl)-2-(4-(methylcarbamoyl)phenyl) benzo[d]imidazo[2,1-b]thiazole-7-carboxamide] | + (+ >3 and <5)

Source: patent US12404283B2, “c-MYC mRNA translation modulators and uses thereof in the treatment of cancer” (Anima Biotech Inc., priority 2022, dated 2025)
